Data: article PMC8286840, “Identifying SARS-CoV-2 antiviral compounds by screening for small molecule inhibitors of Nsp3 papain-like protease” (Biochemical Journal, 2021)
Where a name gives a salt, the structure may show the parent alone. Read-outs that look alike come from different tables or passages of the source.

Assays:
[1] = target: T1, SARS-CoV-2 PLpro (nsp3 1564–1878) (Severe acute respiratory syndrome coronavirus 2, UniProt P0DTD1); assay: biochemical; set-up: FRET-quenched peptide (Pro3) cleavage by PLpro, 10 min pre-incubation, slope over 20 min, normalised to no-compound control; conditions: high concentration screen, read-out: % of control remaining
[2] = target: T1, SARS-CoV-2 PLpro (nsp3 1564–1878); assay: biochemical; set-up: FRET-quenched peptide (Pro3) cleavage by PLpro, 10 min pre-incubation, slope over 20 min, normalised to no-compound control; conditions: low concentration screen, read-out: % of control remaining

Cn1c(=O)c2c(ncn2CC(=O)O)n(C)c1=O [Acefylline]
remaining activity at 3.75 µM ([1]; Well no.=8081): 100%
remaining activity at 3.75 µM ([1]; Well no.=8491): 103%
remaining activity at 1.25 µM ([2]; Well no.=8081): 102%
remaining activity at 1.25 µM ([2]; Well no.=8491): 105%

Cn1cc(C(=O)[C@@H]2CCc3[nH]cnc3C2)c2ccccc21 [Ramosetron (Hydrochloride)]
remaining activity at 3.75 µM ([1]; Well no.=7339): 103%
remaining activity at 1.25 µM ([2]; Well no.=7339): 102%

O=C(Oc1ccc([N+](=O)[O-])cc1)N1CCC(C(O)(c2ccc3c(c2)OCO3)c2ccc3c(c2)OCO3)CC1 [JZL184]
remaining activity at 3.75 µM ([1]; Well no.=8838): 91.1%
remaining activity at 1.25 µM ([2]; Well no.=8838): 92.7%

COC[C@H]1OC(=O)c2coc3c2[C@@]1(C)C1=C(C3=O)[C@@H]2CCC(=O)[C@@]2(C)C[C@H]1OC(C)=O [Wortmannin]
remaining activity at 3.75 µM ([1]; Well no.=3232): 102%
remaining activity at 1.25 µM ([2]; Well no.=3232): 99.9%

C=C[C@](C)(O)CC[C@H]1C(=C)CC[C@H]2C(C)(C)CCC[C@]12C [Manool]
remaining activity at 3.75 µM ([1]; Well no.=3389): 98.7%
remaining activity at 1.25 µM ([2]; Well no.=3389): 95.7%

O=C(Nc1ccccc1)c1cc([N+](=O)[O-])ccc1Cl [GW9662]
remaining activity at 3.75 µM ([1]; Well no.=1122): 89.4%
remaining activity at 1.25 µM ([2]; Well no.=1122): 88.3%

O=C1CN(/N=C/c2ccc(-c3ccc([N+](=O)[O-])cc3)o2)C(=O)N1 [Dantrolene sodium]
remaining activity at 3.75 µM ([1]; Well no.=490): 103%
remaining activity at 1.25 µM ([2]; Well no.=490): 103%

COc1ccc(Cn2ccc3ccc(C(=O)NO)cc32)cc1 [PCI-34051]
remaining activity at 3.75 µM ([1]; Well no.=4710): 103%
remaining activity at 1.25 µM ([2]; Well no.=4710): 107%

COC(=O)C1=CO[C@@H](O[C@@H]2O[C@H](CO)[C@@H](O)[C@H](O)[C@H]2O)[C@@H]2C(CO)=CC[C@H]12 [Geniposide]
remaining activity at 3.75 µM ([1]; Well no.=5206): 97.9%
remaining activity at 1.25 µM ([2]; Well no.=5206): 102%

Cc1nc2cccc(N)c2c(=O)n1C1CCC(=O)NC1=O (centres unmarked) [Avadomide]
remaining activity at 3.75 µM ([1]; Well no.=6870): 95.9%
remaining activity at 1.25 µM ([2]; Well no.=6870): 99.6%

NC(CCP(=O)(O)O)C(=O)O (racemic)
remaining activity at 3.75 µM ([1]; Well no.=297): 101%
remaining activity at 1.25 µM ([2]; Well no.=297): 102%

CC1(C)S[C@@H]2[C@H](NC(=O)C(C(=O)O)c3ccccc3)C(=O)N2[C@H]1C(=O)O (some centres unmarked) [Carbenicillin disodium]
remaining activity at 3.75 µM ([1]; Well no.=5030): 96.8%
remaining activity at 1.25 µM ([2]; Well no.=5030): 96.4%

Fc1ccc(-c2cncc(CN3CCN(c4cccc5c4OCCO5)CC3)c2)cc1 [Adoprazine]
remaining activity at 3.75 µM ([1]; Well no.=8443): 98.5%
remaining activity at 1.25 µM ([2]; Well no.=8443): 100%

C[C@@H]1CCC[C@H](C)N1NC(=O)c1ccc(Cl)c(S(N)(=O)=O)c1 [Clopamide]
remaining activity at 3.75 µM ([1]; Well no.=1773): 93.8%
remaining activity at 1.25 µM ([2]; Well no.=1773): 96%

CCCCCCCC(=O)OC[C@H](CO)OC(=O)CCCCCCC [1,2-Dioctanoyl-SN-glycerol]
remaining activity at 3.75 µM ([1]; Well no.=4476): 107%
remaining activity at 1.25 µM ([2]; Well no.=4476): 103%

CNC(=O)c1ccc(-c2cnc3ncc(Cc4ccc5ncccc5c4)n3n2)cc1F [INCB28060]
remaining activity at 3.75 µM ([1]; Well no.=5119): 103%
remaining activity at 1.25 µM ([2]; Well no.=5119): 102%

CN(C)c1ccc(O)c2c1C[C@H]1C[C@H]3[C@H](N(C)C)C(O)=C(C(N)=O)C(=O)[C@@]3(O)C(O)=C1C2=O [Minocycline]
remaining activity at 3.75 µM ([1]; Well no.=1995): 103%
remaining activity at 1.25 µM ([2]; Well no.=1995): 103%

COc1ccc2cc(OCC3(C(=O)O)CN(C(=O)c4ccc(F)cc4)C3)ccc2c1 [PF-04418948]
remaining activity at 3.75 µM ([1]; Well no.=7197): 87.9%
remaining activity at 1.25 µM ([2]; Well no.=7197): 89.6%

CCC(=O)c1ccc2c(c1)N(CCCN(C)C)c1ccccc1S2 [Propionylpromazine hydrochloride]
remaining activity at 3.75 µM ([1]; Well no.=1301): 106%
remaining activity at 1.25 µM ([2]; Well no.=1301): 103%

O=C(O)CNC(=O)C(=O)O [N-Oxalylglycine]
remaining activity at 3.75 µM ([1]; Well no.=5387): 92.4%
remaining activity at 1.25 µM ([2]; Well no.=5387): 97.9%

O=C(CCCc1ccc(-c2ccccc2F)cc1)Nc1ccc(O)cc1 [MK2a Inhibitor]
remaining activity at 3.75 µM ([1]; Well no.=2548): 102%
remaining activity at 1.25 µM ([2]; Well no.=2548): 94.2%

CC1=C2C[C@H]3[C@@H](CC=C4C[C@@H](O)CC[C@@]43C)[C@@H]2CC[C@]12O[C@@H]1C[C@H](C)CN[C@H]1[C@H]2C [Cyclopamine]
remaining activity at 3.75 µM ([1]; Well no.=3181): 106%
remaining activity at 1.25 µM ([2]; Well no.=3181): 107%

CN1CCN(C2=Nc3ccccc3Oc3ccc(Cl)cc32)CC1 [Loxapine]
remaining activity at 3.75 µM ([1]; Well no.=6371): 102%
remaining activity at 1.25 µM ([2]; Well no.=6371): 99.7%

C/C=C1\C[C@@H](C)[C@](O)(CO)C(=O)OCC2=CCN3CC[C@@H](OC1=O)[C@@H]23 [Retrorsine]
remaining activity at 3.75 µM ([1]; Well no.=3298): 104%
remaining activity at 1.25 µM ([2]; Well no.=3298): 99.9%

CCn1cc(C(=O)O)c(=O)c2ccc(C)nc21 [Nalidixic acid sodium]
remaining activity at 3.75 µM ([1]; Well no.=951): 102%
remaining activity at 1.25 µM ([2]; Well no.=951): 101%

CCCCC[C@H](O)/C=C/C=C\C/C=C\CCCCCCC(=O)O [15(S)-HETrE]
remaining activity at 3.75 µM ([1]; Well no.=4229): 106%
remaining activity at 1.25 µM ([2]; Well no.=4229): 99.3%

O=C1C[C@@H](c2ccccc2)Oc2cc(O)cc(O)c21 [Pinocembrin]
remaining activity at 3.75 µM ([1]; Well no.=3587): 98.4%
remaining activity at 1.25 µM ([2]; Well no.=3587): 99.6%

CCCCCCCCCCCCc1ccc(S(=O)(=O)Nc2nncs2)cc1 [PHT-427]
remaining activity at 3.75 µM ([1]; Well no.=4959): 98.1%
remaining activity at 1.25 µM ([2]; Well no.=4959): 96.5%

COc1cc(C(N)=O)ccc1NC(=O)[C@@H]1N[C@@H](CC(C)(C)C)[C@@]2(C(=O)Nc3cc(Cl)ccc32)[C@H]1c1cccc(Cl)c1F [RO8994]
remaining activity at 3.75 µM ([1]; Well no.=7108): 89.6%
remaining activity at 1.25 µM ([2]; Well no.=7108): 92.4%

CCCN1CC[C@@H]2c3cc(O)ccc3CC[C@@H]21
remaining activity at 3.75 µM ([1]; Well no.=1044): 100%
remaining activity at 1.25 µM ([2]; Well no.=1044): 98.9%

O=C1NC(=O)C(c2cnc3ccccn23)=C1c1cn2c3c(cc(F)cc13)CN(C(=O)N1CCCCC1)CC2 [LY2090314]
remaining activity at 3.75 µM ([1]; Well no.=5645): 98.2%
remaining activity at 1.25 µM ([2]; Well no.=5645): 98.7%

CCOC(=O)c1ccc(OC(=O)CCCCCNC(=N)N)cc1 [Gabexate mesylate]
remaining activity at 3.75 µM ([1]; Well no.=5092): 102%
remaining activity at 1.25 µM ([2]; Well no.=5092): 97.5%

CCNC1=Nc2ccc(Cl)cc2C(C)(c2ccccc2)O1 (centres unmarked) [Etifoxine hydrochloride]
remaining activity at 3.75 µM ([1]; Well no.=6081): 104%
remaining activity at 1.25 µM ([2]; Well no.=6081): 106%

COc1ccc(CNC(=O)c2cc(-c3cncc(C)c3)ncc2-c2nccs2)nc1OC [MK-3697]
remaining activity at 3.75 µM ([1]; Well no.=7867): 95.1%
remaining activity at 1.25 µM ([2]; Well no.=7867): 107%

CC(=O)O/N=C1/C(c2c(O)[nH]c3cc(Br)ccc23)=Nc2ccccc21 [GSK-3 Inhibitor X]
remaining activity at 3.75 µM ([1]; Well no.=2468): 105%
remaining activity at 1.25 µM ([2]; Well no.=2468): 101%

CCCN1CCC[C@H](c2cccc(O)c2)C1 [R(+)-3PPP hydrochloride]
remaining activity at 3.75 µM ([1]; Well no.=1261): 107%
remaining activity at 1.25 µM ([2]; Well no.=1261): 105%
